From patent US7381745B2, “Ligands for metabotropic glutamate receptors and inhibitors of NAALADase” (Georgetown University, priority 1999, dated 2008)
“And” between values parts separate entries of the source, which are not always exact repeats. Equal entries are not always repeated. Where two headings read alike, the source gives them in different places. Residues, ends and D or L forms follow the SMILES beside them.

Columns and labels:
rat GCPII [1] = target: T1, rat GCPII (Rattus norvegicus, UniProt P70627); assay: Inhibition of rat GCPII stably expressed in CHO cells; type: biochemical; details: for IC50: read-out: IC50 against expressed rat GCPII
T1 construct: expressed in transfected cells
T1 sequence (P70627 whole entry): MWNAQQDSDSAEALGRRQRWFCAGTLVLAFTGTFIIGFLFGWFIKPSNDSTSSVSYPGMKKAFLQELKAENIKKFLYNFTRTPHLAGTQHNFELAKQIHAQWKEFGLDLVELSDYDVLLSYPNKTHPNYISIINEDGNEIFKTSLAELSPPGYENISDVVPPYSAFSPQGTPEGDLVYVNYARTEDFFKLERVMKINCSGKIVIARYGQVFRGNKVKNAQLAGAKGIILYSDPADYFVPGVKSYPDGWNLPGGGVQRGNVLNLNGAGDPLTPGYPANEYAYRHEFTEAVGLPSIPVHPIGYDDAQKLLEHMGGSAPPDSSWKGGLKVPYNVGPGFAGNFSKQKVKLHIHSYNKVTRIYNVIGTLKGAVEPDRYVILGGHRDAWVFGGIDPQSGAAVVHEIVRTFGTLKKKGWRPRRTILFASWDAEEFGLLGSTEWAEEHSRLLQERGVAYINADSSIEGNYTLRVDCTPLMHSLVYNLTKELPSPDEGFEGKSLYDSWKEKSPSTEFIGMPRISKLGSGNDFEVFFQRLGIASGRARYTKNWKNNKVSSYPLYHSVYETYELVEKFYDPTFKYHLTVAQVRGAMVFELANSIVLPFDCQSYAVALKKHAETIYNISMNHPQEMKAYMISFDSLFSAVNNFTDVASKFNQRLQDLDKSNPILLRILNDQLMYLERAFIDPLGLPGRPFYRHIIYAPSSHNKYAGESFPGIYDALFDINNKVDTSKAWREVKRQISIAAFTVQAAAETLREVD

rat GCPII [2] = target: T1, rat GCPII; details: cited from earlier work; for IC50: read-out: IC50 against GCPII
[3] = test system: NMDA toxicity in mixed cultures of cortical neuronal-glial cells; assay: NMDA toxicity model B: mixed cortical neuronal-glial cultures, LDH release; type: cell-based, mice
Method: (§1) We have tested the validity of these statements using three models of NMDA toxicity in cultures of cortical neurons prepared from fetal mice. The first model (A) consists of using a culture containing neurons without glial cells. NMDA (75 μM) is applied for 10 min without or with the tested compound. Then the culture medium is replaced and cells are left for 24 hours to develop toxicity. The second model (B) involves the use of mice cortical neurons which are seeded on a layer of confluent glial cells (mostly astrocytes) prepared from cerebral cortex of newborn mice. The incubations are identical as in model A. The third model (C) separates the neuronal and glial cultures. Glial cultures are treated with the tested neuroprotective compound in order to induce the release of protective factors into the medium. In parallel, cultures of cortical neurons (without glia) are treated for 10 min with NMDA (20 μM). Then NMDA is washed out and the neurons are treated with the medium collected from the treated glial cells. In all cases toxicity is assessed 24 hours after NMDA treatment by measurements of lactate dehydrogenase (LDH) activity accumulated in the medium during this period of time.

NAALADase = NAALADase (Rattus norvegicus, UniProt P70627); assay: NAALADase inhibition; type: biochemical; details: read-out: IC50 as NAALADase inhibitor
Chain of NAALADase (P70627 whole entry): as above

mGluR3 [4] = target: T2, mGluR3 (Rattus norvegicus, UniProt P31422); details: cited from earlier work
T2 construct: expressed in transfected cells
T2 sequence (P31422 23-879): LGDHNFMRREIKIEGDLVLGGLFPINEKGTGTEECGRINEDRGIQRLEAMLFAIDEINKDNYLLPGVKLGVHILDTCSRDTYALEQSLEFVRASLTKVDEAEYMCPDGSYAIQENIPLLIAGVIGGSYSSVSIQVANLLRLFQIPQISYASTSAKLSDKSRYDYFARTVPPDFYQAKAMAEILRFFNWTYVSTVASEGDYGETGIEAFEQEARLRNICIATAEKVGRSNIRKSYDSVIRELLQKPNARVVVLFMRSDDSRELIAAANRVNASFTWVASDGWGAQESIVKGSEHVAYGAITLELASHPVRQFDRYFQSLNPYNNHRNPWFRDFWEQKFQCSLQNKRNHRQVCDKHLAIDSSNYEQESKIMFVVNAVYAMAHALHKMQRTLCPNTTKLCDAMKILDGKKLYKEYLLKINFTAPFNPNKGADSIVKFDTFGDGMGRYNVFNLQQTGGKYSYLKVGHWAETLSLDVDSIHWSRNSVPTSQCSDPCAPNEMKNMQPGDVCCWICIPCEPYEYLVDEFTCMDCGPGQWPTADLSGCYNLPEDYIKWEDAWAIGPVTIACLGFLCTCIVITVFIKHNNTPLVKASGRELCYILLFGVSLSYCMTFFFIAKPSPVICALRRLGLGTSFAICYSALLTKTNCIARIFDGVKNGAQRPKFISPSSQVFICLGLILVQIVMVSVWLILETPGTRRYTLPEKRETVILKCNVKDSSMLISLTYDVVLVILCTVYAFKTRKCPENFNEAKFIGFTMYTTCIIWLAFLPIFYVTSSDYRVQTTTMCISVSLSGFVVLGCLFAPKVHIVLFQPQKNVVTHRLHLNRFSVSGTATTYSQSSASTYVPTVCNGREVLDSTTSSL

[5] = test system: NMDA toxicity in cortical neuronal cells; assay: NMDA toxicity model C: cortical neurons given medium from drug-treated glial cells, LDH release; type: cell-based, mice; details: for Neuroprotection against NMDA toxicity: model C protocol, 1 μM, LDH at 24 hours
Method: as §1
This was done using a published protocol in which cultures of cortical glial cells are first treated with the test compound in order to induce the release of protective factors into the medium. In parallel, cultures of cortical neurons (without glia) are exposed for 10 min to the excitotoxic action of NMDA (20 μM). The NMDA is removed by washing, and the neurons are treated with the medium collected from the treated glial cells. Toxicity is then assessed 24 hours after NMDA treatment by the measurement of lactate dehydrogenase (LDH) activity, which serves as a marker for dying cells. […] Among the potent GCPII inhibitors tested, three compounds [HO2C(CH2)2CH(CO2H)CH2]2P(O)(OH), (S)-Glu-C(O)-(S)Glu, and (S)-Asp-C(O)-(S)Glu produced at 1 μM a similarly modest neuroprotection ranging from 21% to 31%. In contrast, the two Cys-containing compounds, (t-Bu)Cys-C(O)-(S)-Glu and (S)-Cys-C(O)-(S)-Glu, produced 69% and 50% neuroprotection, respectively. While the exact mechanism of this neuroprotective effect cannot be explained based entirely upon GCPII inhibition, these exciting results warrant further study in other models of in vitro toxicity, including the assessment of the compounds' effects in vivo.

[6] = test system: transient middle cerebral artery occlusion; details: cited from earlier work
NMDA-induced cell death = details: other in vitro models; cited from earlier work
mGluR3 [7] = target: T2, mGluR3; assay: mGluR3 receptor activation (cell lines transfected with mGluRs); type: cell-based
Excerpt: Our studies began from the dipeptide N-acetyl-L-aspartate-L-glutamate (NAAG), a dipeptide that is quite abundant in the brain, and which is believed to act as a transmitter or co-transmitter in the central nervous system, much like glutamate itself. […] 69, 174(1997)]. Recently, a brain enzyme was identified that is specific for the cleavage of N-acetylated α-linked acidic dipeptides, and as a result this enzyme was named NAALADase [J. Biol. Chem., 1987, 262, 14498].

[8] = test system: U-87 glioblastoma multiforme cells; assay: Antiangiogenesis in s.c. glioblastoma xenografts (vWF staining); type: in vivo; details: 100 μM, 0.1 mL once daily into base of xenograft, harvested at 7 days
Method: Implanted xenografts were formed by s.c. inoculation with 2×10^6 U-87 glioblastoma multiforme cells mixed with 0.5 mg Matrigel. FN11 was dissolved in PBS to a concentration of either 10 or 100 μM, and injections (0.1 mL) were made once daily into the base of the s.c. implanted xenografts. The starting volumes of the tumors were approximately 250 mm^3. The results from this protocol are depicted in FIG. 15.
Control tumors and tumors grown under the conditions described in Example 21 were harvested at the end of 7 days, fixed in formalin and embedded in paraffin for sectioning. Tissue was stained immunohistochemically for von Willebrand's factor (vWF) to obtain a measure of vascularization. FIGS. 13 and 14 present the results of this protocol for the tumor treated with FN11 at 100 μM. FIG. 13 was taken at low magnification (100×), whereas FIG. 14 was taken at high magnification (400×).

[9] = test system: NMDA toxicity in cultures of cortical neurons; assay: NMDA toxicity model A: cortical neurons without glial cells, LDH release; type: cell-based, mice; details: 10 μM, NMDA 75 μM
Method: as §1

With `O=C(O)CC[C@H](NC(=O)C(=O)N[C@@H](CCC(=O)O)C(=O)O)C(=O)O` [(S)-Glu-C(O)-C(O)-(S)-Glu] the “GCPII inhibitory activity (in words)” value (rat GCPII [1]) was “inactive” and the “inhibition of expressed rat GCPII” value (rat GCPII [1]; at 1 μM) was 9% inbibition at 1 μM.
For `O=C(NC(CS)C(=O)O)NC(CS)C(=O)O` [(S)-Cys-C(O)-(S)-Cys], the “GCPII inhibitory activity (in words)” value (rat GCPII [1]; tested at 1 μM) was “Inactive at 1 μM”.
Compound `CC(C)(C)NC(=O)N[C@@H](CCC(=O)O)C(=O)O` (hydrate or solvate) [PC113] has a melting point of 108 to 110 °C.
For `O=C(O)CCC(CP(=O)(O)CC(CCC(=O)O)C(=O)O)C(=O)O` (racemic) [FN6, 4,4′-phosphinicobis(butane-1,3-dicarboxylic acid)], the IC50 (rat GCPII [2]; previous work, listed as PBBDA) is given as 21.7 ± 2.1 nM, the IC50 (rat GCPII [2]; previous work, listed as [HO2C(CH2)2CH(CO2H)CH2]2P(O)(OH)) is given as 26 nM and the Neuroprotection ([3]; 300 μM) is given as “about 30%”. For the same compound, the IC50 (NAALADase) was 4 nM and the EC50 (mGluR3 [4]; previous work, read-out: mGluR3 selective agonist potency) was ~30000 nM.
In the case of `CC(C)(C)SC[C@H](NC(=O)N[C@@H](CCC(=O)O)C(=O)O)C(=O)O` [PC120], the “Neuroprotection against NMDA toxicity” value ([5]; NMDA 20 μM) is reported as 69%, the IC50 (rat GCPII [1]) is reported as 101 ± 19.3 nM and the Ki (rat GCPII [1]; read-out: Ki against GCPII) is reported as ~100 nM.
With `O=C(O)C[C@H](NC(=O)N[C@@H](CC(=O)O)C(=O)O)C(=O)O` (hydrate or solvate) [PC103] the melting point was > 142 °C.
With `CC(C)(C)NC(=O)N[C@@H](CCC(=O)O)C(=O)O` [PC113] the “GCPII inhibitory activity (in words)” value (rat GCPII [1]) was “inactive” and the inhibition at 1 µM (rat GCPII [1]; at 1 μM) was 10%.
In the case of “2-(phosphomethyl)pentanedioic acid [PMPA, reference compound]”, the “Neuroprotection against NMDA toxicity” value ([5]; NMDA 20 μM) is listed as “about 25%”, the “Neuroprotection (in words)” value ([5]; model C, compared with FN6 enantiomers) is listed as “less effective” and the “Glutamate and NAAG levels (in words)” value ([6]; rat MCAO model) is listed as “decreased glutamate levels while increasing NAAG levels”. For the same compound, the “Protection against injury (in words)” value ([6]; rats, Slusher et al.) was “significant protection against injury”, the “Neuroprotection against NMDA-induced cell death” value (NMDA-induced cell death) was 16% and the “mGluR3 activity (in words)” value (mGluR3 [7]) was “act as an agonist at mGluR3”.
With `O=C(O)CC[C@H](NC(=O)N[C@@H](CCC(=O)O)C(=O)O)C(=O)O` [FN11] the “Vascularization of tumor (von Willebrand's factor staining)” value [8] was “preponderance of avascular and low vascular areas” and the IC50 (rat GCPII [1]) was 47 nM.
For `CC(=O)N[C@@H](CC(=O)O)C(=O)N[C@@H](CCC(=O)O)C(=O)O` [NAAG, N-acetyl-L-aspartate-L-glutamate, reference compound] (Ac-Asp-Glu-OH), the EC50 (mGluR3 [4]; cell lines transfected with mGluR1-6, read-out: EC50 for activation of mGluR3) is listed as 65000 ± 20000 nM.
For `O=C(O)C[C@H](NC(=O)N[C@@H](CC(=O)O)C(=O)O)C(=O)O` [PC103], the IC50 (rat GCPII [1]) was 3800 nM.
In the case of `N[C@@H](CCC(=O)O)C(=O)N[C@@H](CCC(=O)O)C(=O)O` [(S)-Glu-(S)-Glu, reference compound] (H-Glu-Glu-OH), the “fold less potent than (S)Glu-C(O)-(S)Glu at GCPII” value (rat GCPII [1]) is reported as 16 fold.
Work on `O=C(O)CC[C@H](NC(=O)N[C@H](CCC(=O)O)C(=O)O)C(=O)O` [FN16] yielded an inhibition at 100 µM (rat GCPII [1]; read-out: inhibition of expressed rat GCPII) of 97%.
For `NC1(C(=O)O)CC2CC1C2C(=O)O` (stereo not shown) [ABHxD-I, 2-aminobicyclo 2.1.1 hexahe-2.5-dicarboxylic acid, reference compound], the “Protection against NMDA toxicity (in words)” value [9] was “not able to protect against NMDA toxicity”, the “Protection against NMDA toxicity (in words)” value ([5]; model C, 10 μM, NMDA 20 μM) was “as effective as in model B” and the “Reduction of the toxic effect of NMDA” value ([3]; 10 μM, NMDA 75 μM) was “over 40%”.
In the case of `O=C(O)CCC(CC(=O)CC(CCC(=O)O)C(=O)O)C(=O)O` (stereo not shown) [A], the “mGluR3 activity (in words)” value (mGluR3 [7]) is reported as “retained significant mGluR3 activity”.
For `O=C(O)CC[C@@H](NC(=O)N[C@H](CCC(=O)O)C(=O)O)C(=O)O` [FN13], the Neuroprotection ([5]; model C, 100 μM) was “about 20%”.
In the case of `N[C@@H](CC(=O)O)C(=O)N[C@@H](CC(=O)O)C(=O)O` [(S)-Asp-(S)-Asp, reference compound] (H-Asp-Asp-OH), the “inhibition of GCPII” value (rat GCPII [2]; at 100 μM, dipeptide, published data for comparison) is listed as 42% inhibition at 100 μM and the IC50 (rat GCPII [2]; published data, ref. 6a) is listed as 58000 nM.
For `O=C(O)CC[C@H](NC(=O)N[C@@H](CC(=O)O)C(=O)O)C(=O)O` [PC107], the IC50 (rat GCPII [1]; listed as (S)-Asp-C(O)-(S)-Glu) was 46 nM and 46.1 nM.
In the case of `O=C(O)CC[C@H](NC(=O)NCC(=O)O)C(=O)O` [PC108], the “GCPII inhibitory activity (in words)” value (rat GCPII [1]) is reported as “inactive” and the inhibition at 1 µM (rat GCPII [1]; at 1 μM) is reported as 46%.
With `O=C(O)CC[C@H](NC(=O)N[C@@H](CS)C(=O)O)C(=O)O` [PC118] the “Neuroprotection against NMDA toxicity” value ([5]; NMDA 20 μM) was 50%, the “GCPII inhibitory activity (in words)” value (rat GCPII [1]) was “nearly as potent as (S)-Glu-C(O)-(S)-Glu” and the IC50 (rat GCPII [1]) was 72.4 ± 6.5 nM.
